Laboratory results as given in ChEMBL document CHEMBL1201862, “PubChem BioAssay data set” (2004).
Values belong to the molecule of their own block, whether it stands above or below them. Calls of active or inactive are those of the source.

Assays:
[1] = molecular target: T1, Oxysterols receptor LXR-beta (Homo sapiens, UniProt P55055); format: functional, cell-based;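 note: Cell-based luminescence dose-response assay of agonist activity at LXR, run as a confirmatory counterscreen to a daf-12 agonist screen; HEK293 cells with Gal4-LXR fusion and GAL4-driven luciferase reporter; agonist potency from rising luciferase signal of a Gal4-LXR reporter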
T1 sequence (P55055 whole entry): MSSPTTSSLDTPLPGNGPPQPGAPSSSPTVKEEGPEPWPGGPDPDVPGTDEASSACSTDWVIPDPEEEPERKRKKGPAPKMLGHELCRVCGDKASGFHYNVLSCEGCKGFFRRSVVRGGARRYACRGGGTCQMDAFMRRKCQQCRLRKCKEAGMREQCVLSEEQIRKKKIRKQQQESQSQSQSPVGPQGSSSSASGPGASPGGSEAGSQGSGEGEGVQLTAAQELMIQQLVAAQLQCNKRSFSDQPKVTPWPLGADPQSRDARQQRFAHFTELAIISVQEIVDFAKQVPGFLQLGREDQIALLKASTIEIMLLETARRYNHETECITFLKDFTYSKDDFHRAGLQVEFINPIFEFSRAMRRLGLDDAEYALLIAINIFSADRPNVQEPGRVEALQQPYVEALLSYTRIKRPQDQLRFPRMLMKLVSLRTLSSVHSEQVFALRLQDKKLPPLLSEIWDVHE

[2] = Luminescence Cell-Based Dose Response HTS to Identify Activators of Luciferase Translation or Activity in H4 […] Cells. [Related pubchem assays: 1829 (Project Summary), 1814 (Primary HTS)]; format: functional
Paired box protein Pax-8 = Paired box protein Pax-8 (Homo sapiens, UniProt Q06710); assay: inhibitors of PAX8-driven TPO luciferase reporter, dose response, RMG-I cells, cherry-pick (AID 687027); format: functional, cell-based;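 note: luciferase reporter driven by Pax8 target thyroperoxidase promoter measured by SteadyGlo luminescence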
[3] = cytotoxicity in OVCAR8 ovarian cancer cells, dose response, PAX8 project, cell-based, plate reader, dry powder samples (AID 743197); format: functional; conditions: OVCAR-8
[4] = NIH:OVCAR-3 ovarian cancer cell cytotoxicity, dose response, PAX8 inhibitor project, plate reader, dry powder samples (AID 743044); format: functional, cell-based
Albumin = Albumin (Bos taurus, UniProt P02769); assay: Counterscreen for inhibitors of T-cell receptor (TCR)-CD3 interaction: Fluorescence-based biochemical high throughput dose response assay to identify inhibitors of T-cell receptor (TCR)-CD3 interaction using a TAMRA-labeled BSA probe.; format: functional
[5] = A549 cell cytotoxicity, dose response, cytotoxicity control, plate reader, cherry-pick, antagonist series (AID 743412); format: functional, cell-based
[6] = LGR2 antagonists, dose response, cell-based, HEK293, CRE-luciferase reporter, cherry pick, set 2 (AID 743343); format: functional;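 note: transfected cells were stimulated with diluted bursicon conditioned medium after compound addition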
[7] = MC4R antagonists, dose response, counter-screen for LGR2 antagonist project, cell-based, plate reader, cherry pick (AID 743444); format: functional;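 note: transfected HEK 293 cells stimulated with alpha-MSH peptide; potency of inhibitors of the alpha-MSH evoked signal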
[8] = HEK293 cell cytotoxicity, dose response, cytotoxicity control, plate reader, cherry-picked samples (AID 743446); format: functional, cell-based
[9] = HeLa cell cytotoxicity, dose response, cytotoxicity control for MgcRacGAP inhibitor project (AID 624300); format: functional
[10] = molecular target: T2, Rac GTPase-activating protein 1 (Homo sapiens, UniProt Q9H0H5); assay: MgcRacGAP GTPase-activating activity inhibitors, confirmation, biochemical, ADP Hunter fluorescence, primary and confirmatory (AID 624330); format: functional
T2 sequence (Q9H0H5 whole entry): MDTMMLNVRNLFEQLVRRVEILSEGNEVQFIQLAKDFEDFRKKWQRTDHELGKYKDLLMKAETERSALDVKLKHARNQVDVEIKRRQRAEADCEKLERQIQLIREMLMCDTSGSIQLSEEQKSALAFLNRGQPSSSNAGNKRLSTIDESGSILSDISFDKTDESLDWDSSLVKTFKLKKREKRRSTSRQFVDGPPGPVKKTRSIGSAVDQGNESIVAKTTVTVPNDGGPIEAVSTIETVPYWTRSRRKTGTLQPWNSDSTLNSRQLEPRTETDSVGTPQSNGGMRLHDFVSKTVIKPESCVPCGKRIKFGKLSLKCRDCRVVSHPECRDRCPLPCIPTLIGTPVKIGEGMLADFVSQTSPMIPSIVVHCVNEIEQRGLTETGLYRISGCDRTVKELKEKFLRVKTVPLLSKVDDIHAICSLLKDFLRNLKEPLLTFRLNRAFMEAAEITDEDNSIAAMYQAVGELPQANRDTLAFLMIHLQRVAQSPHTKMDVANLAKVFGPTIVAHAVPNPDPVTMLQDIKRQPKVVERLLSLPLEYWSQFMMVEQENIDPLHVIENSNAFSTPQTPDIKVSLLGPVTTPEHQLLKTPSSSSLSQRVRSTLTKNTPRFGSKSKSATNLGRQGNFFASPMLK

Chain of Paired box protein Pax-8 (Q06710 whole entry): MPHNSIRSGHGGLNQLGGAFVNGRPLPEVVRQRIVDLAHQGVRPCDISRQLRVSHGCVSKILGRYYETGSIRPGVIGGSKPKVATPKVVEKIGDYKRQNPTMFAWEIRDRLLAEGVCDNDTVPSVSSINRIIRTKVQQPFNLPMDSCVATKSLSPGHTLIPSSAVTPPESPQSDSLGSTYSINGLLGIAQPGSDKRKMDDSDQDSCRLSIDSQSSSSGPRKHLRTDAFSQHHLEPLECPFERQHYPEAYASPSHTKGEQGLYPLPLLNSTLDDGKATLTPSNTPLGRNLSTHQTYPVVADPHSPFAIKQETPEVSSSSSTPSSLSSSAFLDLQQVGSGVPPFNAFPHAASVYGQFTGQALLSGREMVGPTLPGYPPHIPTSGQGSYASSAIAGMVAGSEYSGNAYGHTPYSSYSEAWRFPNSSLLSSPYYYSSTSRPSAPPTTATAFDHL
Chain of Albumin (P02769 whole entry): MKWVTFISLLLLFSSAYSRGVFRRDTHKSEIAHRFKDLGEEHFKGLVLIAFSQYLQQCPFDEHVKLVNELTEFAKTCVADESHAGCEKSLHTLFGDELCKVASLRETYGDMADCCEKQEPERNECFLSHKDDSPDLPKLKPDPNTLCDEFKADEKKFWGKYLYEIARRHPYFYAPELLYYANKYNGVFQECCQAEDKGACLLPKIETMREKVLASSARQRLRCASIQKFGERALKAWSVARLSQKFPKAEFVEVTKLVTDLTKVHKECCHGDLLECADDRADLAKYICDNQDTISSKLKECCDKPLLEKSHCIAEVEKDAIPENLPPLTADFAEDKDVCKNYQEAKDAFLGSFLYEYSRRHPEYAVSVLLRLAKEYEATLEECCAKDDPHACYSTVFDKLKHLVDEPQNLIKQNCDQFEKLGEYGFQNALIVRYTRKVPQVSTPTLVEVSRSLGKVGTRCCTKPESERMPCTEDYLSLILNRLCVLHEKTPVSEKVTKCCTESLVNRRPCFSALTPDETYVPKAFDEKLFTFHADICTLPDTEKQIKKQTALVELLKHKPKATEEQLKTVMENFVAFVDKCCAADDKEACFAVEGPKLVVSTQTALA

SMILES: Cc1ccsc1C(=O)OCc1csc(-c2ccccc2)n1
EC50 [1]: > 67.5 µM (inactive)
EC50 (cells): > 67.5 µM (inactive)

SMILES: Cn1c(=O)c(/C=C/c2ccccc2)nc2ccccc21
EC50 [2]: 0.174 µM (active)
EC50 [1]: > 67.6 µM (inactive)
EC50 (cells): > 67.6 µM (inactive)

SMILES: Cc1cccc(-c2ccc([C@H]3[C@@H](CO)N4CCCCN(S(=O)(=O)c5cccc(C)c5)C[C@@H]34)cc2)c1
AC50 (Paired box protein Pax-8): 8.23 µM (active)
AC50 [3]: > 70 µM (inactive)

SMILES: C[C@@H]1CCCCO[C@@H](CN(C)Cc2ccc(C(F)(F)F)cc2)[C@H](C)CN([C@@H](C)CO)C(=O)c2cc(NC(=O)Nc3ccc(F)cc3)ccc2O1
AC50 (Paired box protein Pax-8): 3.37 µM (active)
AC50 [4]: 45.7 µM (active)

SMILES: Cc1ccc(S(=O)(=O)Nc2ccc3c(c2)C(=O)N([C@H](C)CO)C[C@@H](C)[C@H](CN(C)Cc2ccc(Cl)c(Cl)c2)OCCCC[C@H](C)O3)cc1
AC50 (Paired box protein Pax-8): 6.2 µM (active)
AC50 [4]: 25.4 µM (active)
AC50 [3]: 37.8 µM (active)

IC50 (Albumin): > 94 µM (inactive)
SMILES: Cc1onc(-c2ccccc2)c1C(=O)NN=Cc1cc(Cl)cc(Cl)c1O

SMILES: Cc1cccc(-c2ccc([C@H]3[C@@H](CO)N4CCCCN(C(=O)c5ccc6c(c5)OCO6)C[C@@H]34)cc2)c1
AC50 [5]: 26.4 µM (active)
AC50 [6]: 14.2 µM (active)
AC50 [7]: 15.4 µM (active)
AC50 [8]: 15.6 µM (active)

IC50 [10]: 22.2 µM (active)
SMILES: Oc1ccc(/C=N/Nc2nn3cnnc3c3ccccc23)cc1
CC50 [9]: 100 µM (active)
